Data on one compound can be found in paper PMC8765435, “In Vitro Antimalarial Activity of Inhibitors of the Human GTPase Rac1” (Antimicrobial Agents and Chemotherapy, 2022).

The IC50 is the concentration needed to halve the response being measured.

For data set [1], the system named is P. falciparum asexual parasites, chloroquine-sensitive D10 strain. Kind of data set: Drug susceptibility assay (pLDH), asexual parasites, D10 strain. Type of data set: cell-based, Plasmodium falciparum. As to conditions: Plasmodium falciparum, D10, chloroquine-sensitive D10 strain; read-out: IC50, D10 strain. On the procedure: (§1) Chloroquine (CQ)-sensitive (D10, wild-type 3D7, or transgenic 3D7elo1-pfs16-CBG99) and CQ-resistant (W2) strains of P. falciparum were cultured as described previously ([58]), with slight modifications, as detailed in the supplemental material.
(§2) Asexual parasite growth was determined spectrophotometrically (optical density at 650 nm [OD650]) by measuring the activity of parasite lactate dehydrogenase (pLDH), according to a modified version of the method of Makler et al. ([59]). Gametocyte viability was measured by a luminescence method described previously ([60]). Details for the two methods are reported in the supplemental material. From either the OD or ALU (arbitrary luminescence units), the percentages of viability were calculated according to the formula 100 × (treated sample signal − blank signal)/(untreated control signal − blank signal). The blank for the pLDH assay was uninfected RBCs at the same hematocrit as that of parasitized RBCs, and the blank for the luminescence assay was parasites treated with a high dose of methylene blue. […]
The CQ-sensitive (D10) and the CQ-resistant (W2) strains were maintained at 5% hematocrit […]
supplemented with 1% AlbuMaxII (lipid-rich bovine serum albumin) (Invitrogen), 0.01% hypoxantine (Sigma), 20mM Hepes (EuroClone), 2 mM glutamine (EuroClone). […]
In vitro P. falciparum drug susceptibility assay […]
plate were transferred to a plate containing 100µl of Malstat reagent (0.11% [vol/vol] Triton- […]
dinucleotide [APAD] [Sigma-Aldrich], adjusted to pH 9 with 1 M HCl) and 25 µl of PES/NBT […]
pLDHassay. The plate was read at a wavelength of 650 nm using a microplate reader, Synergy4 […]
Uninfected RBC at the same HCT than parasites were used as blank. […]

In data set [2] the test system is human mammary epithelial cells. On the set-up: method as in PMID 25389450, PMID 25594952. As to conditions: at concentrations lower than 5 μM; cited from earlier work.
For data set [3], the system named is HMEC-1 human microvascular endothelial cells. The data set can be described thus: Cell cytotoxicity MTT assay. Type of data set: cell-based. Here is the method: Cytotoxicity was evaluated on human microvascular endothelial cells (HMEC-1) as detailed in the supplemental material. […] Plates were then read on a microplate reader (Synergy 4; BioTek) at a wavelength of 550 nm (reference, 650 nm). […] All tests were performed in duplicate at least three times.
The selectivity index (SI) is the ratio between the cytotoxic IC50 value against HMEC-1 cells and the parasitic IC50 value against the D10 strain and indicates the compound selectivity for the parasite.
Cytotoxicity was evaluated on Human Microvascular Endothelial Cells (HMEC-1) maintained
and 2 mM L-glutamine. Cells were seeded in 96 well flat bottom tissue culture clusters (1.5x104
cells/well), let adhere overnight and treated with serial dilutions of test compounds . […]
Background: Formazan colour is commonly taken as a measure of viable cells.

For data set [4], the system named is P. falciparum intraerythrocytic parasites. The data set can be described thus: Parasite intraerythrocytic growth (Giemsa smears). In kind it is cell-based, Plasmodium falciparum. As to conditions: 1.4 μM. On the procedure:
A culture of erythrocytes freshly invaded by P. falciparum parasites was set up as previously described ([17]). Parasites were exposed to 1.4 μM EHop-016, and an untreated control was set up. Blood smears were taken at 20, 27, and 39 hpi, corresponding to late ring, trophozoite, and schizont stages, and then Giemsa stained and counted by optical microscopy in order to assess parasitemia. Pictures of the blood smears were taken with a Leica ICC50W camera. These experiments were performed in three biological replicates.

Data set [5] has as its system 3D7 immature gametocytes. Kind of data set: Gametocyte viability luminescence assay, immature gametocytes. Type of data set: cell-based, Plasmodium falciparum. To be noted: Plasmodium falciparum, 3D7, stage II-III gametocytes, 72 h, read-out: Mean IC50 ± SD, 3D7 immature gametocytes. On the procedure:
as §1, §2
(§3) strain (wild type or transgenic 3D7elo1-pfs16-CBG99 strain) was cultured in similar conditions, except for 10% naturally clotted Human O+ serum instead of AlbuMaxII and human type O-positive instead of A-positive RBCs. […]
(§4) in a standard gas mixture consisting of 1% O2, 5% CO2, 94% N2. Immature (stage II-III) and mature (stage V) gametocytes were obtained as described1. Briefly, cultures were diluted to 0.5% parasitemia at 5% HCT, and the medium was changed daily until parasites were stressed by nutrient deprivation. N-acetylglucosamine (NAG) (Sigma-Aldrich) 50 mM was then added to clear residual asexual parasites: Stage II and III gametocytes were obtained 4 days after NAG addition to the culture, while stage IV and V gametocytes were used 11 to 13 days from NAG addition. Gametocyte stages were routinely checked on Giemsa-stained smears. […]
(§5) Drug treated gametocyte cultures were transferred to 96-well black microplates and D-luciferin (1 mM in citrate buffer 0.1 M, pH 5.5) was added at a 1:1 volume ratio. Luminescence measurements were performed after 10 min with 500 ms integration time. Gametocytes treated

The subject of data set [6] is 3D7 mature gametocytes. Kind of data set: Gametocyte viability luminescence assay, mature gametocytes. Type of data set: cell-based, Plasmodium falciparum. As to conditions: Plasmodium falciparum, 3D7; stage V gametocytes, 72 h, luminescence; read-out: Mean IC50 ± SD, 3D7 mature gametocytes. On the procedure:
as §1, §2, §3, §4, §5

`CCn1c2ccccc2c2cc(Nc3ccnc(NCCCN4CCOCC4)n3)ccc21` [EHop-016]: the IC50 in data set [1] was determined as 139 ± 16 nM; in data set [3] (Homo sapiens, HMEC-1, MTT, 72 h, read-out: Mean HMEC-1 IC50 ± SD) it was 5220 ± 1070 nM; in data set [5], 740 ± 200 nM; in data set [6] it was 4650 ± 520 nM. Further, the “viability of human mammary epithelial cells” value in data set [2] is given as “does not affect the viability”. Moreover, the “SI (selectivity index)” value in data set [3] (ratio IC50 against HMEC-1 cells / IC50 against D10 asexual parasites) was 37.8. Moreover, the “parasitemia compared to untreated control” value in data set [4] (20, 27 and 39 hpi) is “significant, time-dependent reduction in parasitemia”. For the same compound, in data set [4] (up to 39 hpi), the parasite developmental process entry was “complete block of the developmental process”.
